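Protocol summary: plate cells (96-well), add compound at 5 concentrations, incubate 48 h, interpolate endpoints linearly. Definition used: TGI = concentration required for complete inhibition of growth.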 A value given as a limit tells only on which side of the number the result lay.

Some test systems named below: HCT-15 colon; UACC-257 melanoma; OVCAR-4 ovarian; KM12 colon; OVCAR-3 ovarian; TK-10 renal; SK-OV-3 ovarian; UACC-62 melanoma; SF-539 CNS; LOX IMVI melanoma; A549 NSCLC; NCI-H460 lung; IGROV1 ovarian; OVCAR-8 ovarian; NCI-H522 lung; DU-145 prostate.
Holding throughout (experiment): NCI-60 cell line screen, 48 h

As to `COC(=O)/C=C/c1cnc2c(c1)oc(=O)n2CCc1ccccn1`, the TGI with HCT-15 colon, in the assay on UACC-257 melanoma, in the assay with OVCAR-4 ovarian, with KM12 colon, in the assay with OVCAR-3 ovarian and in the assay with TK-10 renal was over 100 µM throughout. In addition, the TGI in the assay with SK-OV-3 ovarian, in the assay on UACC-62 melanoma, in the assay on SF-539 CNS, with LOX IMVI melanoma, in the assay with A549 NSCLC and with NCI-H460 lung was over 100 µM in each case. The TGI in the assay with IGROV1 ovarian is over 100 µM.

In the case of `O=C1CSC(/C(=C/c2ccccc2)c2nc3ccccc3[nH]2)=N1`, the TGI is over 100 µM in the assay with HCT-15 colon; over 100 µM in the assay with UACC-257 melanoma; over 100 µM in the assay on OVCAR-4 ovarian; over 100 µM in the assay on KM12 colon; over 100 µM with TK-10 renal; 59.5 µM in the assay with SK-OV-3 ovarian. Also, the TGI in the assay with UACC-62 melanoma was over 100 µM; with SF-539 CNS, 74.4 µM; in the assay on LOX IMVI melanoma, over 100 µM; with A549 NSCLC, over 100 µM; with OVCAR-8 ovarian it was over 100 µM; in the assay with NCI-H460 lung it was over 100 µM. The TGI in the assay on IGROV1 ovarian and in the assay on NCI-H522 lung was over 100 µM in each case.

For `CC1(c2cccc3c2C2(O)C=CC4(CCC32)OCCO4)OCCO1` (stereo not drawn), the TGI with HCT-15 colon, in the assay on UACC-257 melanoma, in the assay with OVCAR-4 ovarian, in the assay on KM12 colon, with OVCAR-3 ovarian and in the assay with TK-10 renal was over 100 µM each time. Further, the TGI in the assay with SK-OV-3 ovarian, with UACC-62 melanoma, in the assay on SF-539 CNS, in the assay with LOX IMVI melanoma, in the assay with A549 NSCLC and in the assay with OVCAR-8 ovarian was over 100 µM in each case. The TGI in the assay with NCI-H460 lung, in the assay on IGROV1 ovarian and in the assay on NCI-H522 lung was over 100 µM throughout.

On to `O=C(CC(=O)C(=O)Nc1ccccc1)CC(c1ccccc1)c1c(O)c2ccccc2oc1=O` (stereo not drawn), for which the TGI with HCT-15 colon, in the assay with KM12 colon, with OVCAR-3 ovarian, with TK-10 renal, in the assay on SK-OV-3 ovarian and with UACC-62 melanoma was over 100 µM throughout. Besides, the TGI in the assay with SF-539 CNS, in the assay with LOX IMVI melanoma, in the assay on A549 NSCLC, in the assay with NCI-H460 lung, with IGROV1 ovarian and in the assay on NCI-H522 lung was over 100 µM each time.

With `COc1ccc(N(C)CN(C)c2nc(N(C)C)nc(N(C)C)n2)cc1`, the TGI in the assay on HCT-15 colon, in the assay with UACC-257 melanoma, with OVCAR-4 ovarian, in the assay with KM12 colon, in the assay with OVCAR-3 ovarian and in the assay on TK-10 renal was over 100 µM each time. For the same molecule, the TGI with SK-OV-3 ovarian, in the assay on UACC-62 melanoma, in the assay on SF-539 CNS, in the assay on LOX IMVI melanoma, in the assay on A549 NSCLC and in the assay with OVCAR-8 ovarian was over 100 µM in each case. The TGI in the assay on NCI-H460 lung, with IGROV1 ovarian and in the assay on NCI-H522 lung was over 100 µM in each case.

Regarding `C[C@@]12c3c4ccc(C=O)c3Oc3ccc(C=O)c(c31)Oc1c(C=O)ccc(c12)O4`, the TGI with HCT-15 colon, in the assay on UACC-257 melanoma, in the assay on OVCAR-4 ovarian, in the assay with KM12 colon, in the assay on OVCAR-3 ovarian and in the assay on TK-10 renal was over 100 µM throughout. The TGI in the assay with SK-OV-3 ovarian, in the assay on UACC-62 melanoma, in the assay on SF-539 CNS, in the assay with LOX IMVI melanoma, in the assay with A549 NSCLC and with OVCAR-8 ovarian was over 100 µM each time. For the same molecule, the TGI with NCI-H460 lung and in the assay with IGROV1 ovarian was over 100 µM in each case.

Regarding `COC(=O)CCC1(C)C2CCC1(C)/C(=N/O)C2` (stereo not drawn), the TGI in the assay on HCT-15 colon, in the assay with UACC-257 melanoma, with DU-145 prostate, in the assay on OVCAR-4 ovarian, with KM12 colon and in the assay with OVCAR-3 ovarian was over 100 µM each time. The TGI in the assay on TK-10 renal, with SK-OV-3 ovarian, in the assay on UACC-62 melanoma, in the assay on A549 NSCLC, with OVCAR-8 ovarian and in the assay with IGROV1 ovarian was over 100 µM in each case. In addition, in the assay with NCI-H522 lung, the TGI was over 100 µM.

Turning to `CC1=CCC2(C#N)CCC1C2O` (stereo not drawn), the TGI in the assay with HCT-15 colon, in the assay with UACC-257 melanoma, in the assay with OVCAR-4 ovarian, with KM12 colon, in the assay on OVCAR-3 ovarian and with TK-10 renal was over 100 µM throughout. In addition, the TGI with SK-OV-3 ovarian, with UACC-62 melanoma, in the assay on SF-539 CNS, in the assay on LOX IMVI melanoma, in the assay on A549 NSCLC and in the assay with OVCAR-8 ovarian was over 100 µM each time. In addition, the TGI in the assay on NCI-H460 lung, in the assay on IGROV1 ovarian and in the assay on NCI-H522 lung was over 100 µM in each case.

For the molecule `COC(=O)C1CC(=O)CCC1c1ccccc1` (stereo not drawn), the TGI in the assay with HCT-15 colon, in the assay on UACC-257 melanoma, in the assay on OVCAR-4 ovarian, in the assay on KM12 colon, with OVCAR-3 ovarian and with TK-10 renal was over 100 µM each time. The TGI with SK-OV-3 ovarian, with UACC-62 melanoma, in the assay with SF-539 CNS, in the assay on LOX IMVI melanoma, in the assay with A549 NSCLC and in the assay on OVCAR-8 ovarian was over 100 µM throughout. For the same molecule, the TGI in the assay on NCI-H460 lung, with IGROV1 ovarian and in the assay on NCI-H522 lung was over 100 µM each time.

On to `C#CCSc1nc(N)c2ncn(C3OC(CO)C(O)C3O)c2n1` (stereo not drawn), for which the TGI in the assay on HCT-15 colon, with UACC-257 melanoma, in the assay on OVCAR-4 ovarian, with KM12 colon, in the assay with OVCAR-3 ovarian and with TK-10 renal was over 100 µM in each case. The TGI in the assay on LOX IMVI melanoma, with A549 NSCLC, in the assay on OVCAR-8 ovarian, in the assay on NCI-H460 lung, with IGROV1 ovarian and in the assay with NCI-H522 lung was over 100 µM in each case.

Source of the values: PubChem BioAssay (NCI).
